Assay results taken from patent publication US10479786B2, “Protein kinase inhibitors” (Princeton Drug Discovery Inc, priority 2016, dated 2019).
Blank lines part the entries; values can stand above or below the molecule they belong to.

Tests used:
FYN(isoform b) = biological target: T1, FYN(isoform b) (Homo sapiens, UniProt P06241); experiment: Off-chip Mobility Shift Assay, kinase inhibition; format: biochemical; conditions: recombinant FYN(isoform b)
T1 construct: purchased Carna Biosciences, Inc

KIT(D816V) = biological target: T2, KIT(D816V) (Homo sapiens, UniProt P10721, D816V); experiment: Off-chip Mobility Shift Assay, kinase inhibition; format: biochemical; conditions: at 10 nM; recombinant KIT(D816V)
T2 construct: purchased Carna Biosciences, Inc

KIT(D816Y) = biological target: T3, KIT(D816Y) (Homo sapiens, UniProt P10721, D816Y); experiment: Off-chip Mobility Shift Assay, kinase inhibition; format: biochemical; conditions: at 10 nM; recombinant KIT(D816Y)
T3 construct: purchased Carna Biosciences, Inc
T3 sequence (P10721 26-976 D816Y): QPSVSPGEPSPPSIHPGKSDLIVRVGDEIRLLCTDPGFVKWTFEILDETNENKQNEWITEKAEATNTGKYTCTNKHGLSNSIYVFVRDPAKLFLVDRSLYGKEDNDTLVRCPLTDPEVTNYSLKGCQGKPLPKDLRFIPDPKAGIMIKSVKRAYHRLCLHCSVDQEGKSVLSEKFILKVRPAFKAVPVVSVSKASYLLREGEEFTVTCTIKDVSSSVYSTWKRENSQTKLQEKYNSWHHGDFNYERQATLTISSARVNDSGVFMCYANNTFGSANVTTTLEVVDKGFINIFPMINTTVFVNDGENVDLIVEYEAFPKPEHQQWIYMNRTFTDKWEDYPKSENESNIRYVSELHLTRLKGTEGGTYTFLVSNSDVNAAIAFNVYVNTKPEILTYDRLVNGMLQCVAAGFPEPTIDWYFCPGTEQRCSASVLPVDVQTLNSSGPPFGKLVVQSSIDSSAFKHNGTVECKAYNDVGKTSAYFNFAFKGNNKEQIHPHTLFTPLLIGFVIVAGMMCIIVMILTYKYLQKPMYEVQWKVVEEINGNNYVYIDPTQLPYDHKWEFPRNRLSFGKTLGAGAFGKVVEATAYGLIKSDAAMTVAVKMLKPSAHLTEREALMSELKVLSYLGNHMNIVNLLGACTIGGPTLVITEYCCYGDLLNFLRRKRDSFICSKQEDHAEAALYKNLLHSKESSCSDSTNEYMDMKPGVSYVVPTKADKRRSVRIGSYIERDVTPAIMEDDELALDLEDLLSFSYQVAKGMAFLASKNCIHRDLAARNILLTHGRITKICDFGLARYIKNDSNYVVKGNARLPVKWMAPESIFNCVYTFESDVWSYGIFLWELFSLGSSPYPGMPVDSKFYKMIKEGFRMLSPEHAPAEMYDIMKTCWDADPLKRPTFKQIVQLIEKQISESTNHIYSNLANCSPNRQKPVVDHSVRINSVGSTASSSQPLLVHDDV

PDGFRα(V561D) = biological target: T4, PDGFRα(V561D) (Homo sapiens, UniProt P16234, V561D); experiment: Off-chip Mobility Shift Assay, kinase inhibition; format: biochemical; conditions: at 10 nM; recombinant PDGFRα(V561D)
T4 construct: purchased Carna Biosciences, Inc

KIT = biological target: T5, KIT (Homo sapiens, UniProt P10721); experiment: Off-chip Mobility Shift Assay, kinase inhibition; format: biochemical; conditions: recombinant KIT; for inhibition at 0.01 µM: at 10 nM
T5 construct: purchased Carna Biosciences, Inc
T5 sequence (P10721 26-976): as the sequence (P10721 26-976 D816Y) above, with Y791D counted along it

KIT(V560G) = biological target: T6, KIT(V560G) (Homo sapiens, UniProt P10721, V560G); experiment: Off-chip Mobility Shift Assay, kinase inhibition; format: biochemical; conditions: recombinant KIT(V560G); for inhibition at 0.01 µM: at 10 nM
T6 construct: purchased Carna Biosciences, Inc
T6 sequence (P10721 26-976 V560G): as the sequence (P10721 26-976 D816Y) above, with V535G, Y791D counted along it

HER4 = biological target: T7, HER4 (Homo sapiens, UniProt Q15303); experiment: Off-chip Mobility Shift Assay, kinase inhibition; format: biochemical; conditions: at 10 nM; recombinant HER4
T7 construct: purchased Carna Biosciences, Inc

EGFR(L858R) = biological target: T8, EGFR(L858R) (Homo sapiens, UniProt P00533, L858R); experiment: Off-chip Mobility Shift Assay, kinase inhibition; format: biochemical; conditions: at 10 nM; recombinant EGFR(L858R)
T8 construct: purchased Carna Biosciences, Inc

EGFR = biological target: T9, EGFR (Homo sapiens, UniProt P00533); experiment: Off-chip Mobility Shift Assay, kinase inhibition; format: biochemical; conditions: recombinant EGFR; for inhibition at 0.01 µM: at 10 nM
T9 construct: purchased Carna Biosciences, Inc
T9 sequence (P00533 25-1210): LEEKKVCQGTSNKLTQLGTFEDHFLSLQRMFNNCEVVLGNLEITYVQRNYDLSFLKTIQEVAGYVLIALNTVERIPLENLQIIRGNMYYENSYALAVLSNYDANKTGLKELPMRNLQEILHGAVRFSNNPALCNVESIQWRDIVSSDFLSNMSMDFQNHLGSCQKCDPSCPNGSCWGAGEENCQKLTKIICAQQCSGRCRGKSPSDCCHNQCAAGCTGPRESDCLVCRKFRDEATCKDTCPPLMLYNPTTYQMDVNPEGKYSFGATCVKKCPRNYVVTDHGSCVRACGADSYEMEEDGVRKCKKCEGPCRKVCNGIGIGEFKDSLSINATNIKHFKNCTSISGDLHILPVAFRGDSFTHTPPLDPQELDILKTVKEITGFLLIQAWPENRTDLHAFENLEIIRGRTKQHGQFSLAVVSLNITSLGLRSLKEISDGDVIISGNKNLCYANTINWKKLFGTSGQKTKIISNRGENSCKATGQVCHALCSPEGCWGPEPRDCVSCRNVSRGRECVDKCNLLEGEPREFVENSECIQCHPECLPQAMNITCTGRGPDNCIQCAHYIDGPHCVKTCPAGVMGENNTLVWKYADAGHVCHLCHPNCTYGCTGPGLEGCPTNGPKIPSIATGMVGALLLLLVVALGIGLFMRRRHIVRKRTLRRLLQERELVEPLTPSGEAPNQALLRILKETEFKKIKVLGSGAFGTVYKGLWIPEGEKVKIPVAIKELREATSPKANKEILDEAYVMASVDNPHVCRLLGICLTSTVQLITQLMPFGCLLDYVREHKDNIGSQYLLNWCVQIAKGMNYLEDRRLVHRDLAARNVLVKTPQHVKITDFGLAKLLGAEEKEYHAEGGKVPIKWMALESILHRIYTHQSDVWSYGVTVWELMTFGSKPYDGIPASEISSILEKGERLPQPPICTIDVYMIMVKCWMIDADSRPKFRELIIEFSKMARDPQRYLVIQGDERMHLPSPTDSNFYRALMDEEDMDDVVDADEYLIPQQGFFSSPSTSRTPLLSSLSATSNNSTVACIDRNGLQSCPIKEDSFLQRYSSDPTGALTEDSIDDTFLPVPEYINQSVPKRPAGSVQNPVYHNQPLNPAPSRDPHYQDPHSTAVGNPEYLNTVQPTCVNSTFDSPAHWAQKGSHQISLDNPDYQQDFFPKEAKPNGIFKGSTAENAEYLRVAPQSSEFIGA

JAK1 = biological target: T10, JAK1 (Homo sapiens, UniProt P23458); experiment: Off-chip Mobility Shift Assay, kinase inhibition; format: biochemical; conditions: at 10 nM; recombinant JAK1
T10 construct: purchased Carna Biosciences, Inc

RET = biological target: T11, RET (Homo sapiens, UniProt P07949); experiment: Off-chip Mobility Shift Assay, kinase inhibition; format: biochemical; conditions: at 10 nM; recombinant RET
T11 construct: purchased Carna Biosciences, Inc

RAF1 = biological target: T12, RAF1 (Homo sapiens, UniProt P04049, Y340D/Y341D); experiment: Off-chip Mobility Shift Assay, kinase inhibition; format: biochemical; conditions: recombinant RAF1; for inhibition at 0.01 µM: at 10 nM
T12 construct: purchased Carna Biosciences, Inc
T12 sequence (P04049 306-648 Y340D/Y341D limits assumed): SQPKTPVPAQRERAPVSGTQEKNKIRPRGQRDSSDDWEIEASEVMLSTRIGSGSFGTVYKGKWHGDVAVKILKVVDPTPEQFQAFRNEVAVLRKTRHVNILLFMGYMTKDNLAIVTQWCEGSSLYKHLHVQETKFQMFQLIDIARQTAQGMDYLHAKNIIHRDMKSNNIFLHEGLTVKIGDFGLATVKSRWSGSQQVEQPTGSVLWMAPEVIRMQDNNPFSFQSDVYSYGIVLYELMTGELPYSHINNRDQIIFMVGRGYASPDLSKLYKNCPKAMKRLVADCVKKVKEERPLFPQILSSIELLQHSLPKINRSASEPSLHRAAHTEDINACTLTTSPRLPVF

AurA = biological target: T13, AurA (Homo sapiens, UniProt O14965); experiment: Off-chip Mobility Shift Assay, kinase inhibition; format: biochemical; conditions: at 10 nM; recombinant AurA
T13 construct: purchased Carna Biosciences, Inc

EGFR(T790M) = biological target: T14, EGFR(T790M) (Homo sapiens, UniProt P00533, T790M); experiment: Off-chip Mobility Shift Assay, kinase inhibition; format: biochemical; conditions: at 10 nM; recombinant EGFR(T790M)
T14 construct: purchased Carna Biosciences, Inc

p38α = biological target: T15, p38α (Homo sapiens, UniProt Q16539); experiment: Off-chip Mobility Shift Assay, kinase inhibition; format: biochemical; conditions: recombinant p38α; for inhibition at 0.01 µM: at 10 nM
T15 construct: purchased Carna Biosciences, Inc
T15 sequence (Q16539 whole entry): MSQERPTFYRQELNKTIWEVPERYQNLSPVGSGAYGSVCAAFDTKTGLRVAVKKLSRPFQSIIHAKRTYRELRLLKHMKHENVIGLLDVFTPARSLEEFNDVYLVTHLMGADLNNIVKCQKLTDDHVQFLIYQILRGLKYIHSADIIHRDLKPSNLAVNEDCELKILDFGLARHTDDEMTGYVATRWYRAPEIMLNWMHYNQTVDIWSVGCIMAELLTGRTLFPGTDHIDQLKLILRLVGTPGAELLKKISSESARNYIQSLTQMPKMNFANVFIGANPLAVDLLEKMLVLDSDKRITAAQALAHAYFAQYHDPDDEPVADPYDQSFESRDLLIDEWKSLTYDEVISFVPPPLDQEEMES

HER2 = biological target: T16, HER2 (Homo sapiens, UniProt P04626); experiment: Off-chip Mobility Shift Assay, kinase inhibition; format: biochemical; conditions: recombinant HER2; for inhibition at 0.01 µM: at 10 nM
T16 construct: purchased Carna Biosciences, Inc
T16 sequence (P04626 23-1255): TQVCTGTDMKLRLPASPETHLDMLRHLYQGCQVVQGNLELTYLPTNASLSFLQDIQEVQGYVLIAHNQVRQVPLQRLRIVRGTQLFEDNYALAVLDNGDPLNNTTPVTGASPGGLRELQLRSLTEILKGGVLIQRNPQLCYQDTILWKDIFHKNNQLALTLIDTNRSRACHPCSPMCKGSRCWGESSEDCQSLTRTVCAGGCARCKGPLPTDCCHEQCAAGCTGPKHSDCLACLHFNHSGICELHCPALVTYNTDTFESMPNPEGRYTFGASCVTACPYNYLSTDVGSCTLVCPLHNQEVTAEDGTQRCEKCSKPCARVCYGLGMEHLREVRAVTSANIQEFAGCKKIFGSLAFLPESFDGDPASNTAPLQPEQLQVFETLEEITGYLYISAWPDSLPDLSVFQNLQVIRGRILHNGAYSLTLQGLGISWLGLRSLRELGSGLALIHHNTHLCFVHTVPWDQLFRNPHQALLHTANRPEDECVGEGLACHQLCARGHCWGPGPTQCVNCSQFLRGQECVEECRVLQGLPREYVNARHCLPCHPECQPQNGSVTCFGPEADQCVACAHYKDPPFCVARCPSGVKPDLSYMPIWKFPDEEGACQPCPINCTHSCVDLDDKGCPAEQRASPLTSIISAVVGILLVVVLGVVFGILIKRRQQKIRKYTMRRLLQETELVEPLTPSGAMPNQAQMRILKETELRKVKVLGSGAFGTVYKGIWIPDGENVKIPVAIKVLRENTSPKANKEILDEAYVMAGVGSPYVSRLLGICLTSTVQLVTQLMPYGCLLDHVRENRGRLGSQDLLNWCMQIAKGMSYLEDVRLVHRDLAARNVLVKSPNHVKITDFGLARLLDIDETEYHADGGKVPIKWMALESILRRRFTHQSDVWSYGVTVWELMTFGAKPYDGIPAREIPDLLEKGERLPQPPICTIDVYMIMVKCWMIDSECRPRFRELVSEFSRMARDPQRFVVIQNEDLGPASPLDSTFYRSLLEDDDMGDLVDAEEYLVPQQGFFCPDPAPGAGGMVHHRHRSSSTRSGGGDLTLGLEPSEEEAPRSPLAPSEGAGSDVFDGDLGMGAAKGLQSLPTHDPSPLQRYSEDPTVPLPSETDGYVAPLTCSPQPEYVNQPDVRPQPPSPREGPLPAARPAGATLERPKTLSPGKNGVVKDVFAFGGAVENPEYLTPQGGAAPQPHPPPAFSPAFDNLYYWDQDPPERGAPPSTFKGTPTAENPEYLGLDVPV

JAK3 = biological target: T17, JAK3 (Homo sapiens, UniProt P52333); experiment: Off-chip Mobility Shift Assay, kinase inhibition; format: biochemical; conditions: at 10 nM; recombinant JAK3
T17 construct: purchased Carna Biosciences, Inc

MAP2K1 = biological target: T18, MAP2K1 (Homo sapiens, UniProt Q02750); experiment: Off-chip Mobility Shift Assay, kinase inhibition; format: biochemical; conditions: at 10 nM; recombinant MAP2K1
T18 construct: purchased Carna Biosciences, Inc

p38β = biological target: T19, p38β (Homo sapiens, UniProt Q15759); experiment: Off-chip Mobility Shift Assay, kinase inhibition; format: biochemical; conditions: recombinant p38β; for inhibition at 0.01 µM: at 10 nM
T19 construct: purchased Carna Biosciences, Inc
T19 sequence (Q15759 whole entry): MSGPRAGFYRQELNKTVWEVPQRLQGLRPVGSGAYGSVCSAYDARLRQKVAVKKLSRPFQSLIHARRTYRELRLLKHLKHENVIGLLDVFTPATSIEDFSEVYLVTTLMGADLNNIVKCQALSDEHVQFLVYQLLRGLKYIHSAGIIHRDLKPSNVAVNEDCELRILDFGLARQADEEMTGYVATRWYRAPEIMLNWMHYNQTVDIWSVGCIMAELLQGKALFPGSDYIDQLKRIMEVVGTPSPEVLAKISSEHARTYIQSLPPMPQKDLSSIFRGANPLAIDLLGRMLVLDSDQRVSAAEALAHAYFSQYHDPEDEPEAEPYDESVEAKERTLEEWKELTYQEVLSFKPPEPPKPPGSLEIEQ

EGFR(T790M/L858R) = biological target: T20, EGFR(T790M/L858R) (Homo sapiens, UniProt P00533, L858R/T790M); experiment: Off-chip Mobility Shift Assay, kinase inhibition; format: biochemical; conditions: at 10 nM; recombinant EGFR(T790M/L858R)
T20 construct: purchased Carna Biosciences, Inc

FLT1 = biological target: T21, FLT1 (Homo sapiens, UniProt P17948); experiment: Off-chip Mobility Shift Assay, kinase inhibition; format: biochemical; conditions: at 10 nM; recombinant FLT1
T21 construct: purchased Carna Biosciences, Inc

BRAF = biological target: T22, BRAF (Homo sapiens, UniProt P15056); experiment: Off-chip Mobility Shift Assay, kinase inhibition; format: biochemical; conditions: recombinant BRAF; for inhibition at 0.01 µM: at 10 nM
T22 construct: purchased Carna Biosciences, Inc

MNK1 = biological target: T23, MNK1 (Homo sapiens, UniProt Q9BUB5); experiment: Off-chip Mobility Shift Assay, kinase inhibition; format: biochemical; conditions: at 10 nM; recombinant MNK1
T23 construct: purchased Carna Biosciences, Inc

YES(T348I) = biological target: T24, YES(T348I) (Homo sapiens, UniProt P07947, T348I); experiment: Off-chip Mobility Shift Assay, kinase inhibition; format: biochemical; conditions: recombinant YES(T348I)
T24 construct: purchased Carna Biosciences, Inc
T24 sequence (P07947 whole entry T348I): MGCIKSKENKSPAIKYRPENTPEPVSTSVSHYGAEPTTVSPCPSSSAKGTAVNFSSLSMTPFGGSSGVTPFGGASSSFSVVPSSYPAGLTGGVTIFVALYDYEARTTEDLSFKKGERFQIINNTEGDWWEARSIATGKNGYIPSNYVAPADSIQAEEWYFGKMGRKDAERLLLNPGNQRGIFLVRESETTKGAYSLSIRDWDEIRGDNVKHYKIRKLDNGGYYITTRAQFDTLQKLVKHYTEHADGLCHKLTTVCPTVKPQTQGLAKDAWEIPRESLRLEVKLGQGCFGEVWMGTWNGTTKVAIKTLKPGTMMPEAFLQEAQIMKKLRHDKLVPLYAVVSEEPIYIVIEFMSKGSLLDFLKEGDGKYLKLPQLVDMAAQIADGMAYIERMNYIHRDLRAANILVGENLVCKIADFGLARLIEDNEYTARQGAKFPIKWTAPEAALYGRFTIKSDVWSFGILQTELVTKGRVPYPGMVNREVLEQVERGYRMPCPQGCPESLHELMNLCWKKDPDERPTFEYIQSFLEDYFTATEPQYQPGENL

FGFR1 = biological target: T25, FGFR1 (Homo sapiens, UniProt P11362); experiment: Off-chip Mobility Shift Assay, kinase inhibition; format: biochemical; conditions: at 10 nM; recombinant FGFR1
T25 construct: purchased Carna Biosciences, Inc

[1] = Lung tissue and plasma concentration ratios in mice; format: in vivo, CD-1 mouse; conditions: single oral dose 5 mg/kg, 2-in-1 with dasatinib, all time points tested
Procedure: CD-1 mouse (approximate weight 30 g, N=3) were dosed by oral gavage at 10 mL/kg. Blood samples were collected into tubes containing EDTA as the anticoagulant at 1, 2, 4, 10 h post-dosing for Compound X, and predose, 1, 2, 3, 8, 10 and 24 h post-dosing for Compound XI. The plasma samples were prepared by centrifugation. Lung samples were also collected at each of the above time points. The lung samples were homogenated in 4× distilled water (v/w). The plasma samples and the homogenated lung tissue samples were mixed with 3× volumes of acetonitrile containing 100 nM reserpine as the internal standard, and centrifuged at 4000 RPM for 15 min. The supernatants were injected for LC/MS analysis which were carried out on a AB Sciex 4000 Q Trap LC/MS/MS system coupled with Shimadzu Prominence UFLCXR 20 series (including a CBM-20A controller, two LC-20ADXR solvent delivery units, SIL-20AC HT autosampler, CTO-20A column oven, and a SPD-20A UV detector). The samples were separated on a Phenomenex Columbus column (C18, 4 μm, 50×2 mm) eluted with two solvent systems: 2 mM ammonium acetate in water containing 0.1% formic acid (A) and methanol (B) at a linear gradient starting at 25%. Electrospray ionization in positive mode was used to acquire LC/MS/MS data.

inhibition at 0.01 µM (FYN(isoform b); at 10 nM): > 50%
inhibition at 0.01 µM (KIT(D816V)): > 50%
inhibition at 0.01 µM (KIT(D816Y)): > 50%
inhibition at 0.01 µM (PDGFRα(V561D)): < 50%
inhibition at 0.01 µM (KIT): < 50%
inhibition at 0.01 µM (KIT(V560G)): < 50%
inhibition at 0.01 µM (HER4): < 50%
inhibition at 0.01 µM (EGFR(L858R)): < 50%
inhibition at 0.01 µM (EGFR): < 50%
inhibition at 0.01 µM (JAK1): < 50%
inhibition at 0.01 µM (RET): < 50%
inhibition at 0.01 µM (RAF1): < 50%
inhibition at 0.01 µM (AurA): < 50%
inhibition at 0.01 µM (EGFR(T790M)): < 50%
inhibition at 0.01 µM (p38α): < 50%
inhibition at 0.01 µM (HER2): < 50%
inhibition at 0.01 µM (JAK3): < 50%
inhibition at 0.01 µM (MAP2K1): < 50%
inhibition at 0.01 µM (p38β): < 50%
inhibition at 0.01 µM (EGFR(T790M/L858R)): < 50%
inhibition at 0.01 µM (FLT1): < 50%
inhibition at 0.01 µM (BRAF): < 50%
inhibition at 0.01 µM (MNK1): < 50%
inhibition at 0.01 µM (YES(T348I); at 10 nM): < 50%
inhibition at 0.01 µM (FGFR1): < 50%
Structure (SMILES): [2H]c1cc(C)c(NC(=O)c2cnc(Nc3cc(N4CCCCC4)nc(C)n3)s2)c(Cl)c1 [Compound I, N-(2-chloro-4-deuterio-6-methyl-phenyl)-2-[[2-methyl-6-(1-piperidyl)pyrimidin-4-yl]amino]thiazole-5-carboxamide]

inhibition at 0.001 µM (FYN(isoform b); at 1 nM): > 50%
inhibition at 0.001 µM (KIT; at 1 nM): < 50%
inhibition at 0.01 µM (KIT): > 50%
inhibition at 0.1 µM (KIT; at 100 nM): > 50%
inhibition at 0.001 µM (KIT(V560G); at 1 nM): < 50%
inhibition at 0.01 µM (KIT(V560G)): > 50%
inhibition at 0.1 µM (KIT(V560G); at 100 nM): > 50%
inhibition at 0.001 µM (EGFR; at 1 nM): < 50%
inhibition at 0.01 µM (EGFR): < 50%
inhibition at 0.1 µM (EGFR; at 100 nM): > 50%
inhibition at 0.001 µM (RAF1; at 1 nM): < 50%
inhibition at 0.01 µM (RAF1): < 50%
inhibition at 0.1 µM (RAF1; at 100 nM): < 50%
inhibition at 0.001 µM (p38α; at 1 nM): < 50%
inhibition at 0.01 µM (p38α): < 50%
inhibition at 0.1 µM (p38α; at 100 nM): < 50%
inhibition at 0.001 µM (HER2; at 1 nM): < 50%
inhibition at 0.01 µM (HER2): < 50%
inhibition at 0.1 µM (HER2; at 100 nM): < 50%
inhibition at 0.001 µM (p38β; at 1 nM): < 50%
inhibition at 0.01 µM (p38β): < 50%
inhibition at 0.1 µM (p38β; at 100 nM): < 50%
inhibition at 0.001 µM (BRAF; at 1 nM): < 50%
inhibition at 0.01 µM (BRAF): < 50%
inhibition at 0.1 µM (BRAF; at 100 nM): < 50%
inhibition at 0.001 µM (YES(T348I); at 1 nM): < 50%
Structure (SMILES): [2H]c1cc(C)c(NC(=O)c2cnc(Nc3cc(N4CCC(O)CC4)nc(C)n3)s2)c(Cl)c1 [Compound II, N-(2-chloro-4-deuterio-6-methyl-phenyl)-2-[[6-(4-hydroxy-1-piperidyl)-2-methyl-pyrimidin-4-yl]amino]thiazole-5-carboxamide]

ratio of lung tissue concentration to plasma concentration, compared to dasatinib [1]: significantly lower ratios
Structure (SMILES): Cc1nc(Nc2ncc(C(=O)Nc3c(C)cccc3Cl)s2)cc(N2CC[C@H](O)C2)n1 [Compound X, N-(2-chloro-6-methylphenyl)-2-[[2-methyl-6-((S)-3-hydroxypyrrolidin-1-yl)pyrimidin-4-yl]amino]thiazole-5-carboxamide]

ratio of lung tissue concentration to plasma concentration, compared to dasatinib [1]: significantly lower ratios
Structure (SMILES): Cc1nc(Nc2ncc(C(=O)Nc3c(C)cccc3Cl)s2)cc(N2CC[C@@H](O)C2)n1 [Compound XI, N-(2-chloro-6-methylphenyl)-2-[[2-methyl-6-((R)-3-hydroxypyrrolidin-1-yl)pyrimidin-4-yl]amino]thiazole-5-carboxamide]
